Measured values reported in ChEMBL document CHEMBL3046219, “Inhibitive Effect of Prodigiosin on the Proliferation of Human Malignant Pancreatic Cancer Cells” (Med Chem Res, 2005).
Activity calls are given as the source filed them. The calls are words filed in the database; no cut-off is given here.

Experiments:
Homo sapiens [1] = species on record: Homo sapiens; assay: Cytotoxicity against Homo sapiens (human) H8898 cells assessed as reduction in cell viability at 50 umol by MTT assay; type: functional, cell-based; settings: TDE = time-dependent effect
Homo sapiens [2] = species on record: Homo sapiens; assay: Induction of DNA fragmentation in Homo sapiens (human) H8898 cells at 50 umol after 24 hr by agarose gel electrophoresis; type: functional
Homo sapiens [3] = species on record: Homo sapiens; assay: Cytotoxicity against Homo sapiens (human) H8898 cells assessed as reduction in cell viability at 50 umol at 12 hr by MTT assay; type: functional, cell-based
Homo sapiens [4] = species on record: Homo sapiens; assay: Antiproliferative activity against Homo sapiens (human) H8898 cells after 5 days using trypan blue staining by hemocytometry; type: functional
Homo sapiens [5] = species on record: Homo sapiens; assay: (§1) Cytotoxicity against Homo sapiens (human) H8898 cells assessed as reduction in cell viability after 12 hr by MTT assay; type: functional, cell-based
[6] = as §1; type: functional, cell-based
Homo sapiens [7] = species on record: Homo sapiens; assay: Induction of DNA fragmentation in Homo sapiens (human) H8898 cells at 12.5 umol after 24 hr by agarose gel electrophoresis; type: functional
[8] = Cell cycle arrest in Homo sapiens (human) H8898 cells assessed as retardation at G1/S phase at 12 to 50 umol after 24 hr by flow cytometry; type: functional
Homo sapiens [9] = species on record: Homo sapiens; assay: Inhibition of clone formation in Homo sapiens (human) H8898 cells after 5 days using trypan blue staining by inverted microscopy; type: functional
[10] = Drug uptake in Homo sapiens (human) H8898 cells after 24 hr by HPLC analysis; type: ADME
Homo sapiens [11] = species on record: Homo sapiens; assay: Cytotoxicity against Homo sapiens (human) H8898 cells assessed as reduction in cell viability at 50 umol after 2 days by MTT assay; type: functional, cell-based
Homo sapiens [12] = species on record: Homo sapiens; assay: Induction of oxidative stress in Homo sapiens (human) H8898 cells assessed as increase in intracellular ROS level after 12 hr using CDCFH-DA by spectrophotometry; type: functional, cell-based
Homo sapiens [13] = species on record: Homo sapiens; assay: Cytotoxicity against Homo sapiens (human) H8898 cells assessed as reduction in cell viability at 50 umol up to 5 days by MTT assay; type: functional, cell-based
[14] = Cell cycle arrest in Homo sapiens (human) H8898 cells assessed as reduction in S phase cells at 12 to 50 umol after 24 hr by flow cytometry; type: functional, cell-based
[15] = Cell cycle arrest in Homo sapiens (human) H8898 cells assessed as increase in G0-G1 phase cells at 12 to 50 umol after 24 hr by flow cytometry; type: functional, cell-based
Homo sapiens [16] = species on record: Homo sapiens; assay: Induction of apoptosis in Homo sapiens (human) H8898 cells at 12.5 to 50 umol after 24 hr by FACS analysis; type: functional
Homo sapiens [17] = species on record: Homo sapiens; assay: Induction of apoptosis in Homo sapiens (human) H8898 cells assessed as cytoplasm leakage into membrane bound vesicles at 12.5 umol after 12 hr by microscopy; type: functional
[18] = Cytotoxicity against Homo sapiens (human) H8898 cells assessed as reduction in cell viability at 50 umol after 8 to 12 hr by MTT assay; type: functional
[19] = Cytotoxicity against Homo sapiens (human) H8898 cells assessed as reduction in cell viability at 50 umol after 12 hr by MTT assay; type: functional
[20] = Cytotoxicity against Homo sapiens (human) H8898 cells assessed as reduction in cell viability at 25 umol after 12 hr by MTT assay; type: functional
Homo sapiens [21] = species on record: Homo sapiens; assay: Induction of apoptosis in Homo sapiens (human) H8898 cells assessed as cell compaction at 12.5 umol after 12 hr by microscopy; type: functional

With `CCCCCC1=C/C(=C/c2[nH]c(-c3ccc[nH]3)cc2OC)N=C1C` [PRODIGIOSIN] the Activity (Homo sapiens [1]) was “tde”, the Activity (Homo sapiens [2]) was “Active” and the Activity (Homo sapiens [3]) was “Active”. The Activity (Homo sapiens [4]) was “Active”, the Activity (Homo sapiens [5]) was “Dose-dependent effect” and the IC50 [6] was 75 µM. For the same molecule, the Activity (Homo sapiens [7]) was “Active”, the Activity [8] was “Active” and the Activity (Homo sapiens [9]) was “Active”. The Drug uptake [10] was “Dose-dependent effect”, the Activity (Homo sapiens [11]) was “Active” and the Activity (Homo sapiens [12]) was “Dose-dependent effect”. The Activity (Homo sapiens [13]) was “Active”, the Activity [14] was “Active” and the Activity [15] was “Active”. The Activity (Homo sapiens [16]) was “Active”, the Activity (Homo sapiens [17]) was “Active” and the Activity [18] was 28%. The Activity [19] was 34%, the Activity [20] was 5.6% and the Activity (Homo sapiens [21]) was “Active”.
